“And” between values parts separate entries of the source, which are not always exact repeats. Equal values may be shown once. Marks after values point to notes of the source that are not given here.
Experiments:
[1] = In vivo determination of whole blood-to-plasma ratio; set-up: species or system male C57BL/6 mice; conditions: mouse blood, 15 min and 1 h post-dose
Protocol: Blood was collected from mice at 15 min and 1 h post-dose of each compound for the purposes of determining the whole blood-to-plasma (B/P) ratio. […] No adverse reactions or compound-related side effects observed in any mice during the 24 h sampling period after dosing any of the compounds. Plasma samples were also taken from 2 mice that were not administered test compound for use as analytical tool.
Analysis of B/P partitioning samples was conducted similarly and quantified against calibration standards samples prepared using a 1:1 v/v mixture of blank mouse blood and plasma. The matrix matched B/P partitioning samples and standards were processed using protein precipitation with acetonitrile as described above.
In Vivo Determination of Whole Blood-to-Plasma Ration
Blood was collected via cardiac puncture (whilst under gaseous isoflurane anaesthesia) into tubes containing heparin and stabilisation cocktail. The haematocrit was determined via centrifugation (13000×g for 4 min using a Clemets® Microhematocrit centrifuge and Safecap® Plain Self-sealing Mylar Wrapped capillary tubes), and values ranged from 38% to 40% for PF670462 and 38% to 44% for ZH3-138. […]
The B/P ratio was obtained by dividing the average measured concentration in blood by the average concentration measured in plasma following centrifugation of whole blood.

[2] = Mouse pharmacokinetics, IV and oral administration; assay type: in vivo; conditions: male C57BL/6 mice
Protocol: PF670462 (2HCl.0.4 mol. eq. isopropanol) and ZH3-138 (unionised) were administered to male C57BL/6 mice by IV (3 mg/kg) or orally (10 mg/kg). IV administration was achieved by bolus injection into the tail vein of mice using 1 mL syringe with 25G×1″ needle at a volume of 3 mL/kg. Oral administration was achieved by gavage needle at a volume of 3 mL/kg.
Intravenous (IV) and oral formulations were prepared using the same method. On the day of dosing, each of the solid compound was dissolved in DMSO to which an aqueous solution containing 10% Captisol was added. Hydrochloric acid (1 M) was used to modify pH for the formulation of ZH3-138 with the purpose of solubilising the compound (see Section B for the final pH of each formulation). The formulations of each compound were thoroughly vortexed, producing colourless solutions for all three compounds.
The systemic exposure of PF670462 and ZH3-138 was studied in non-fasted male C57BL/6 mice weighing 19.8-26.8 g. Mice had access to food and water ad libitum throughout the pre- and post-dose sampling period.
Compounds were dosed to mice by bolus injection into the lateral tail vein (3 mL/kg) for IV administration and by gavage (3 mL/kg) for oral administration. Following IV and oral administration, blood samples were collected up to 24 h (n=3 mice per time point) with a maximum of three samples from each mouse. Samples were collected via submandibular bleed (approximately 120 μL; conscious sampling). No urine samples were collected as mice were housed in bedded cages.
Blood was collected into polypropylene Eppendorf tubes containing heparin as anticoagulant and stabilisation cocktail (containing Complete® (a protease inhibitor cocktail) and potassium fluoride) to minimise the potential for ex vivo compound degradation in blood/plasma samples.
Once collected, blood samples were centrifuged immediately, supernatant plasma was removed, and stored at −80° C. until analysis by LC-MS.
Plasma samples were quantified against calibration standards prepared by spiking blank mouse plasma (50 μL) with solution standards (10 μL) obtained by diluting a stock solution of test compound (1 mg/mL in DMSO) with 50% acetonitrile in water. Diazepam (10 μL of 5 μg/mL in 50% acetonitrile/water) was added to all plasma calibration standards and samples as an internal standard (IS). The extraction of the test compound and IS from plasma was conducted using protein precipitation with acetonitrile. Protein precipitation was carried out by the addition of acetonitrile followed by vortexing and centrifugation (10,000 rpm) for 3 minutes to obtain supernatant for analysis using the LC-MS conditions described in Table 7.

apparent whole blood-to-plasma ratio (B/P) [1]: 1.0
apparent blood clearance [2]: moderate
apparent blood volume of distribution [2]: moderate
time post-dose for which plasma concentration was measurable (above LLQ) ([2]; 24 h sampling period): up to 4 h
Plasma Concentration, Mean ([2]; IV 2.42 mg/kg, 0.017 h): 15500 nM
Plasma Concentration, Individual ([2]; IV 2.42 mg/kg, 0.017 h, 2.42 mg/kg): 18.4 µM and 10.9 µM and 17.3 µM
Plasma Concentration, Mean ([2]; IV 2.42 mg/kg, 0.033 h): 8140 nM
Plasma Concentration, Individual ([2]; IV 2.42 mg/kg, 0.033 h, 2.42 mg/kg): 8.83 µM and 8.03 µM and 7.57 µM
Plasma Concentration, Mean ([2]; IV 2.42 mg/kg, 0.083 h): 6090 nM
Plasma Concentration, Individual ([2]; IV 2.42 mg/kg, 0.083 h, 2.42 mg/kg): 5.58 µM and 5.99 µM and 6.70 µM
Plasma Concentration, Mean ([2]; IV 2.42 mg/kg, 0.25 h): 2480 nM
Plasma Concentration, Individual ([2]; IV 2.42 mg/kg, 0.25 h, 2.42 mg/kg): 2.38 µM and 2.32 µM and 2.75 µM
Plasma Concentration, Mean ([2]; IV 2.42 mg/kg, 0.5 h): 851 nM
Plasma Concentration, Individual ([2]; IV 2.42 mg/kg, 0.5 h, 2.42 mg/kg): 0.900 µM and 0.566 µM and 1.09 µM
Plasma Concentration, Mean ([2]; IV 2.42 mg/kg, 1.0 h): 190 nM
Plasma Concentration, Individual ([2]; IV 2.42 mg/kg, 1.0 h, 2.42 mg/kg): 0.193 µM and 0.165 µM and 0.212 µM
Plasma Concentration, Mean ([2]; IV 2.42 mg/kg, 2.0 h): 253 nM
Plasma Concentration, Individual ([2]; IV 2.42 mg/kg, 2.0 h, 2.42 mg/kg): 0.0263 µM and 0.0207 µM and 0.0290 µM
Plasma Concentration, Mean ([2]; IV 2.42 mg/kg, 4.0 h): 2.09 nM
Plasma Concentration, Mean ([2]; oral 10.1 mg/kg, 0.25 h): 1250 nM
Plasma Concentration, Individual ([2]; oral 10.1 mg/kg, 0.25 h, 10.1 mg/kg): 1.45 µM and 0.873 µM and 1.44 µM
Plasma Concentration, Mean ([2]; oral 10.1 mg/kg, 0.50 h): 941 nM
Plasma Concentration, Individual ([2]; oral 10.1 mg/kg, 0.50 h, 10.1 mg/kg): 1.95 µM and 0.508 µM and 0.366 µM
Plasma Concentration, Mean ([2]; oral 10.1 mg/kg, 1.0 h): 292 nM
Plasma Concentration, Individual ([2]; oral 10.1 mg/kg, 1.0 h, 10.1 mg/kg): 0.260 µM and 0.340 µM and 0.277 µM
Plasma Concentration, Mean ([2]; oral 10.1 mg/kg, 2.0 h): 103 nM
Plasma Concentration, Individual ([2]; oral 10.1 mg/kg, 2.0 h, 10.1 mg/kg): 0.140 µM and 0.0641 µM and 0.104 µM
Plasma Concentration, Mean ([2]; oral 10.1 mg/kg, 4.0 h): 16.5 nM
Plasma Concentration, Individual ([2]; oral 10.1 mg/kg, 4.0 h, 10.1 mg/kg): 0.0318 µM and 0.0106 µM and 0.00703 µM
apparent half-life ([2]; plasma): approximately 0.5 h
Structure (SMILES): Nc1nccc(-c2c(-c3ccc(F)cc3)ncn2C2CCCCC2)n1 [PF670462, reference compound]
Plasma Concentration, Individual ([2]; IV 2.42 mg/kg, 4.0 h, values only marginally below the LLQ, 2.42 mg/kg): 0.00222 ^a μM and 0.00134 ^a μM and 0.0027 ^a μM

— patent US20220281846A1, “COMPOUNDS AND COMPOSITIONS FOR THE TREATMENT OF RESPIRATORY DISEASES” (THE UNIVERSITY OF MELBOURNE, priority 2018, published 2022)
